Test results from US20120035169A1, “AEROSOL FORMULATION FOR THE INHALATION OF BETA-AGONISTS” (BOEHRINGER INGELHEIM INTERNATIONAL GMBH, priority 2004, published 2012).
Where a name gives a salt, the structure may show the parent alone.

Row | melting point | Structure (SMILES)
1 | 278 to 280 °C | Cc1cc(CC(C)(C)NCC(O)c2cc(O)cc3c2OCC(=O)N3)ccc1F (centres unmarked) (as salt: hydrochloride)
2 | 201 to 204 °C | CC(C)(Cc1ccc(OCCCC(=O)O)cc1)NCC(O)c1cc(O)cc2c1OCC(=O)N2 (centres unmarked) (as salt: salt) [Example 16, Acid addition salt of 4-(4-{2-[2-hydroxy-2-(6-hydroxy-3-oxo-3,4-dihydro-2H-benzo[1,4]oxazin-8-yl)-ethylamino]-2-methyl-propyl}-phenoxy)-butyric acid]

Continued, compound first:

Row | Structure (SMILES) | melting point
3 | Cc1cc(F)ccc1CC(C)(C)NCC(O)c1cc(O)cc2c1OCC(=O)N2 (centres unmarked) (as salt: hydrochloride) | 278 to 280 °C
4 | CC(C)(Cc1ccc(F)cc1F)NCC(O)c1cc(O)cc2c1OCC(=O)N2 (centres unmarked) (as salt: hydrochloride) | 279 to 280 °C
5 | Cc1cc(C)cc(CC(C)(C)NCC(O)c2cc(O)cc3c2OCC(=O)N3)c1 (centres unmarked) (as salt: hydrochloride) | 235 to 238 °C
